Source: patent publication US4599414A, “Theophylline derivatives” (Eisai Co., Ltd., priority 1979, dated 1986)
Read-outs that look alike come from different tables or passages of the source.

Tested on: contractile response to histamine, terminal ileum
Assay: Antihistaminic action: inhibition of contractile response to histamine (10^-6 M) in isolated terminal ileum
Format: cell-based, guinea-pig
Conditions: for inhibition at 1 µM / inhibition at 0.1 µM / inhibition at 0.01 µM: Cavia porcellus
Method: The terminal ileum was removed from a starved guinea-pig and set up in an organ bath containing Tyrode solution maintained at 26° C. Contractile tension was recorded isometrically under a tension of 1.5 g with a strain-gauge transducer. After obtaining control response to histamine (10^-6 M), antagonists were added to the bath and allowed to remain in contact with the tissue for 3 minutes. Contractile response to histamine in the presence of the antagonists was recorded and the inhibitory rate was calculated according to the following equation: [formula] The tissue was then washed at 10 min intervals with fresh Tyrode solution. Contractile response to histamine was tested after each wash in order to study the duration of action of the antagonists.

[1] = 0.05 h, antagonist 10^-6 M, 3 min contact, before washing, read-out: Inhibitory rate before washing
[2] = 0.05 h, antagonist 10^-7 M, 3 min contact, before washing, read-out: Inhibitory rate before washing
[3] = 0.05 h, antagonist 10^-8 M, 3 min contact, before washing, read-out: Inhibitory rate before washing
[4] = antagonist 10^-6 M, after 1st washing, read-out: Inhibitory rate after 1st washing
[5] = antagonist 10^-6 M, after 2nd washing, read-out: Inhibitory rate after 2nd washing
[6] = antagonist 10^-7 M, after 1st washing, read-out: Inhibitory rate after 1st washing
[7] = antagonist 10^-8 M, after 1st washing, read-out: Inhibitory rate after 1st washing
[8] = antagonist 10^-8 M, after 2nd washing, read-out: Inhibitory rate after 2nd washing
[9] = antagonist 10^-7 M, after 2nd washing, read-out: Inhibitory rate after 2nd washing
[10] = antagonist 10^-7 M, after 3rd washing, read-out: Inhibitory rate after 3rd washing
[11] = antagonist 10^-8 M, after 3rd washing, read-out: Inhibitory rate after 3rd washing
[12] = antagonist 10^-6 M, after 3rd washing, read-out: Inhibitory rate after 3rd washing
[13] = 0.05 h, read-out: Inhibitory rate before washing
[14] = read-out: Inhibitory rate after 1st washing
[15] = read-out: Inhibitory rate after 2nd washing

Structure (SMILES) | inhibition at 1 µM [1] [%] | inhibition at 0.1 µM [2] [%] | inhibition at 0.01 µM [3] [%] | inhibition at 1 µM [4] [%] | inhibition at 1 µM [5] [%] | inhibition at 0.1 µM [6] [%] | inhibition at 0.01 µM [7] [%] | inhibition at 0.01 µM [8] [%] | inhibition at 0.1 µM [9] [%] | inhibition at 0.1 µM [10] [%] | inhibition at 0.01 µM [11] [%] | Inhibitory rate after 4th washing (antagonist 10^-7 M) [%] | Inhibitory rate after 5th washing (antagonist 10^-7 M) [%] | inhibition at 1 µM [12] [%] | other results
Cn1c(=O)c2c(ncn2CCCN2CCCN(Cc3ccc([N+](=O)[O-])cc3)CC2)n(C)c1=O [(10)] | 100 | 65 | 21 | 46 | 19 | 16 | 12 | 0 | – | – | – | – | – | – | –
Cn1c(=O)c2c(ncn2CCCN2CCCN(Cc3ccccc3Cl)CC2)n(C)c1=O [(6)] | 100 | 80 | 14 | 100 | – | 73 | 14 | 14 | 58 | 47 | 6 | 38 | 29 | – | Inhibitory rate after 6th washing (antagonist 10^-7 M): 29%; Inhibitory rate after 7th washing (antagonist 10^-7 M): 20%
Cn1c(=O)c2c(ncn2CCCN2CCCN(Cc3ccccc3)CC2)n(C)c1=O [(11)] | – | 78 | 0 | – | – | 10 | 0 | – | 4 | 0 | – | – | – | – | –
Cn1c(=O)c2c(ncn2CCCN2CCCN(Cc3ccc(F)cc3)CC2)n(C)c1=O [(9)] | 100 | 77 | 10 | 27 | 5 | 20 | 7 | 7 | 13 | 5 | 1 | – | – | 0 | –
Cn1c(=O)c2c(ncn2CCCN2CCCN(c3ccccc3)CC2)n(C)c1=O [(4)] | 100 | 64 | 12 | 10 | 0 | 4 | 0 | – | 0 | – | – | – | – | – | –
CC(CN1c2ccccc2Sc2ccccc21)N(C)C (stereo not drawn) [(1), Promethazine, reference compound] | – | 87 | 37 | – | – | 77 | 44 | – | 56 | 37 | – | – | – | – | –
Cn1c(=O)c2c(ncn2CCCN2CCCN(Cc3ccc(Cl)c(Cl)c3)CC2)n(C)c1=O [(8)] | – | 65 | 11 | – | – | 55 | 29 | 19 | 28 | 28 | – | 20 | – | – | –
Cn1c(=O)c2c(ncn2CCCN2CCCN(Cc3ccc(Cl)cc3)CC2)n(C)c1=O [(5)] | 100 | 100 | 2 | 84 | 65 | 64 | 7 | 4 | 31 | 20 | – | – | 0 | 58 | –
CN1CCCN(C(c2ccccc2)c2ccc(Cl)cc2)CC1 (stereo not drawn) [(3), Homochlorcyclizine, reference compound] | – | – | – | – | – | – | – | – | – | – | – | 39 | 25 | – | inhibition at 0.01 µM [13]: 13%; inhibition at 0.1 µM [13]: 88%; inhibition at 0.01 µM [14]: 46%; inhibition at 0.1 µM [14]: 84%; inhibition at 0.01 µM [15]: 42%; inhibition at 0.1 µM [15]: 63%; inhibition at 0.1 µM (read-out: Inhibitory rate after 3rd washing): 55%; Inhibitory rate after 6th washing (antagonist 10^-7 M): 33%
Cn1c(=O)c2c(ncn2CCCN2CCCN(Cc3ccc(Cl)cc3Cl)CC2)n(C)c1=O [(7)] | 96 | 78 | 6 | 100 | 100 | 59 | 42 | 46 | 52 | 30 | 46 | – | – | 100 | Inhibitory rate after 4th washing (antagonist 10^-6 M): 83%; Inhibitory rate after 5th washing (antagonist 10^-6 M): 87%; Inhibitory rate after 6th washing (antagonist 10^-6 M): 85%; Inhibitory rate after 5th washing (antagonist 10^-8 M): 32%; Inhibitory rate after 6th washing (antagonist 10^-8 M): 18%; Inhibitory rate after 7th washing (antagonist 10^-8 M): 14%
